Experimental data reported in ChEMBL document CHEMBL1201862, “PubChem BioAssay data set” (2004).
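Five compound concentrations were applied to cells in 96-well plates for 48 hours; endpoints were derived by simple linear interpolation of the resulting dose-response curve. GI50 marks 50% less growth.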 Activity calls are given as the source filed them. Cut-off read from the data, not from the text of the source: active = GI50 up to about 1.1 µM and inactive = higher.

What was measured:
Assay in all cases: NCI anticancer screen, dose series, 48 h
[1] = tested on: NCI-H226
[2] = tested on: HL-60
[3] = tested on: MDA-N
[4] = tested on: Hs-578T
[5] = tested on: SK-MEL-5
[6] = tested on: HCT-116
[7] = tested on: UO-31
[8] = tested on: CCRF-CEM
[9] = tested on: DU-145
[10] = tested on: COLO 205
[11] = tested on: SK-MEL-28
[12] = tested on: TK-10
[13] = tested on: SF-295
[14] = tested on: HOP-18
[15] = tested on: HOP-92
[16] = tested on: OVCAR-4
[17] = tested on: OVCAR-8
[18] = tested on: NCI/ADR-RES
[19] = tested on: HT-29
[20] = tested on: SK-MEL-2

Measured: GI50

C1CN(c2nnc(N3CCC3)nn2)C1
inactive: [1] > 96.6 µM | [2] > 100 µM | [3] 17.3 µM | [4] 39 µM | [5] 25.2 µM | [6] 84.5 µM | [7] > 100 µM | [8] > 100 µM | [9] > 100 µM | [10] 60.7 µM | [11] 44.5 µM | [12] > 100 µM | [13] 37.3 µM | [14] > 100 µM | [15] > 100 µM | [16] 40.9 µM | [17] > 100 µM | [18] > 53 µM | [19] 35.6 µM | [20] 44.1 µM

COc1ccc(/C(Cl)=C(\C=O)c2cc(OC)c(OC)c(OC)c2)cc1OC
inactive: [1] 19.8 µM | [2] 5.78 µM | [3] 12.3 µM | [4] 27.5 µM | [5] 14.8 µM | [6] 36.6 µM | [7] 16.8 µM | [8] 26.1 µM | [9] 44.7 µM | [10] 27.5 µM | [11] 61.8 µM | [12] 56.6 µM | [13] 34.1 µM | [14] 12.2 µM | [15] 49 µM | [16] 24.3 µM | [17] 17.8 µM | [18] 13.2 µM | [19] 12.8 µM | [20] 19.6 µM

c1ccc2cc(-c3cc4ccccc4s3)ccc2c1
inactive: [1] > 100 µM | [2] > 100 µM | [5] > 100 µM | [6] > 100 µM | [7] > 100 µM | [8] > 100 µM | [10] > 100 µM | [11] > 100 µM | [12] > 100 µM | [13] > 100 µM | [14] > 100 µM | [15] > 100 µM | [16] > 100 µM | [17] > 100 µM | [19] > 100 µM | [20] > 100 µM
